Laboratory results: patent US20040241194A1, “Food supplement for animals” (Phytosynthese, priority 2001, published 2004)

Columns and labels:
[1] = Influence on growth, study on white free-range chickens; type: in vivo
Procedure: This test is conducted under the same conditions by administering 2 kg of the composition of the invention per tonne to four batches of chickens.

[2] = Influence on growth of chickens, open-label study versus monensin; type: in vivo; details: for Mean daily weight gain: composition at 1.5 kg per tonne
Procedure: The parameters considered are the performance index and the mean daily weight gain. The composition of the invention is administered at the rate of 1.5 kg per tonne.

SMILES: CC[C@@]1([C@@H]2O[C@@H]([C@H]3O[C@@](O)(CO)[C@H](C)C[C@@H]3C)C[C@@H]2C)CC[C@H]([C@]2(C)CC[C@]3(C[C@H](O)[C@@H](C)[C@@H]([C@@H](C)[C@@H](OC)[C@H](C)C(=O)O)O3)O2)O1 [Control, monensin]
- Feed conversion index (quantity of feed for obtaining 1 kg of chicken) ([1]; General Mean): 2.979
- Mean weight ([1]; General Mean): 2.116 kg
- Mean daily weight gain ([1]; General Mean, composition at 2 kg per tonne): 25.46 g
- Feed conversion index (quantity of feed for obtaining 1 kg of chicken) ([1]; Mean of the 1st third): 2.810
- Mean daily weight gain ([1]; Mean of the 1st third): 26.30 g
- Mean weight ([1]; Mean of the 1st third): 2.265 kg
- Feed conversion index (quantity of feed for obtaining 1 kg of chicken) ([1]; Mean of the 2nd third): 2.960
- Mean daily weight gain ([1]; Mean of the 2nd third): 25.48 g
- Mean weight ([1]; Mean of the 2nd third): 2.131 kg
- Feed conversion index (quantity of feed for obtaining 1 kg of chicken) ([1]; Mean of the 3rd third): 3.167
- Mean daily weight gain ([1]; Mean of the 3rd third): 24.64 g
- Mean weight ([1]; Mean of the 3rd third): 2.054 kg
- Mean weight ([2]; Table VI batch): 2.083 kg
- Performance index ([2]; Table VI batch): 87
- Mean daily weight gain ([2]; Table VI batch): 25.32 g
- Mean weight ([2]; Table VII batch): 2.169 kg
- Performance index ([2]; Table VII batch): 95
- Mean daily weight gain ([2]; Table VII batch): 26.46 g
